For data set [1], the system named is human prostate cancer cells (PC3). The data set can be described thus: Assessment of cytotoxicity by SRB assay, PC3 cells. The data set is classed as cell-based. Conditions: 0.01 μM to 100 μM, 72 h. As for the experimental part:
(§1) The human prostate cancer cells (PC3) and human osteosarcoma cells (MG-63) were obtained from Nawah Scientific Inc. (Mokatam, Cairo, Egypt) and cultured in DMEM (Dulbecco's modified eagle's medium), Gibco, USA, supplemented with fetal bovine serum (FBS) at a concentration of 10% and 100 U/mL of penicillin and streptomycin (PS). The Cells were incubated at 37° C. in a humidified environment that contained 5% CO2.
(§2) Cells were seeded in 96-well plates as aliquots of 100 μL cell suspension and incubated in a complete media for 24 h. Afterward, cells were treated with 6-amino-8,9-di(4-methoxyphenyl)-2-oxo-3,9-dihydro-2H-[1,3]thiazolo[5′,4′:5,6]pyrano[2,3-b]pyridine-7-carbonitrile (2) at diverse concentrations ranging from 0.01 μM to 100 μM for 72 h. Then, cells were fixed at 4° C. for one hour with 150 μL of 10% trichloroacetic acid (TCA). After washing the cells five times with distilled water, 70 μL of sulforhodamine (SRB) solution (0.4% w/v) was added and incubated for 10 min at room temperature in a dark place. […] Then, 150 μL of Tris pH 10.5 (10 mM) was added, and the absorbance was measured at 540 nm using a BMG LABTECH®-FLUOstar Omega microplate reader (Ortenberg, Germany). Half maximal inhibitory concentration (IC50) values were calculated for each experiment using GraphPad Prism 6 software. […]
(§3) The inhibition was calculated using the following equation: Inhibition %=100−Average Viability
A general note: The SRB assay estimates cell density from bound dye.

The test system of data set [2] is human osteosarcoma cells (MG-63). The data set can be described thus: Assessment of cytotoxicity by SRB assay, MG-63 cells. The class given is cell-based. Particulars: 0.01 μM to 100 μM, 72 h. As to the method: as §1, §2, §3

This is an account of results in patent US11897901B1, “6-amino-8,9-di(4-methoxyphenyl)-2-oxo-3,9-dihydro-2H-[1,3]thiazolo[5′,4′:5,6]pyrano[2,3-b]pyridine-7-carbonitrile as anticancer compound” (KING FAISAL UNIVERSITY, priority 2023, dated 2024).

A word on the melting point: it is the temperature of the solid-liquid transition.

As for `COc1ccc(-c2c(C#N)c(N)nc3c2C(c2ccc(OC)cc2)c2sc(=O)[nH]c2O3)cc1` (stereo not drawn) [Compound 2, 6-amino-8,9-di(4-methoxyphenyl)-2-oxo-3,9-dihydro-2H-[1,3]thiazolo[5′,4′:5,6]pyrano[2,3-b]pyridine-7-carbonitrile], the melting point lay in the range of 234 to 236 °C. In data set [1], the “antiproliferative activities against cancer cells (PC3)” value is recorded as “excellent antiproliferative activities”. The “antiproliferative activities against osteosarcoma (MG-63) cells” value in data set [2] is recorded as “excellent antiproliferative activities”.
